In patent US20250352615A1, “COMPOSITIONS AND METHODS FOR THE MODULATION OF PIEZO1 AND TRPV4” (Duke University, priority 2021, published 2025):

How the values were obtained:
pancreatic acini = test: Cell death assays of pancreatic acini (LDH release, Live/Dead, live-cell imaging); format: cell-based
Experimental: The viability of pancreatic acini with Yoda1 and CCK treatments was analyzed using the Live/Dead Cell Imaging Kit (Thermo Fisher Scientific, catalog R37601) or the LDH Release Assay Kit (Promega, catalog G1780).

[1] = test system: Yes-associated protein (YAP); test: YAP nuclear localization in mouse stellate cells (immunostaining); format: cell-based; settings: Yoda1 25 μM for 4 hr
Experimental: Murine stellate cells from wild type or Piezo1^GFAPKO mice were activated with 25 μM Yoda 1 for 4 hours before fixation. Immunostaining staining was performed as described in Swain et al. JCI Insight 7:e158288 (2022). Yap antibody was diluted at 1/100.

**Q.** With `Clc1cccc(Cl)c1CSc1nnc(-c2cnccn2)s1` [Yoda1] as the molecule, how does the “acinar cell death, both Yoda1 and CCK vs individual application” value (pancreatic acini; Yoda1 50 μM + CCK 1 nM, WT acini) read?
**A.** acinar cell death was greater

**Q.** And the “acinar cell morphology by live-cell imaging” value (pancreatic acini; Yoda1 50 μM, WT acini)?
**A.** caused swelling of WT pancreatic acinar cells and release of zymogen granules from the basolateral surface and gradually ruptured the cell membrane

**Q.** And the “response of acinar cells from Piezo1aci-KO mice (live-cell imaging)” value (pancreatic acini; Yoda1, Piezo1aci-KO acini)?
**A.** did not respond to Yoda1

**Q.** And the “YAP nuclear localization in stellate cells from Piezo1GFAP-KO mice” value [1]?
**A.** No changes were observed

**Q.** What about the YAP nuclear localization ([1]; wild-type stellate cells, preliminary) of the same molecule?
**A.** increases YAP nuclear localization
